# Measurements as given in patent US20100204295A1, “TREATMENT OF ALLERGIC DISEASE WITH IMMUNOMODULATOR COMPOUNDS” (SCICLONE PHARMACEUTICALS, INC., priority 2007, published 2010).
# “And” between values parts separate entries of the source, which are not always exact repeats. Identical values can stand only once. “Also recorded” adds a separate entry of the source.
# Legend:
# [1] = system: interleukin-4; assay: ConA-induced IL-4 production by splenocytes after intra-abdominal SCV-07; format: in vivo, mice; details: 1 μg/kg, five daily intra-abdominal injections; ConA 5 μg/mL
# Protocol: SCV-07 was administered to intact wild mice in the form of five daily intra-abdominal injections at dosages of 0.1 and 1.0 μg/kg of body weight. After this, isolation of spleen cells was carried out the cytokine synthesis was induced in the culture by stimulating the cells with concanavalin A at a dosage of 5 μg/mL. The levels of the synthesized cytokines were determined by quantitative immunoenzyme analysis. […] The changes on ConA-induced production of two other [sic] cytokines—IFN-γ and IL-4, as is apparent from FIG. 1, were reciprocal in nature.
# [2] = system: immediate allergic reaction to OVA aerosol; assay: Immediate response to aerosol, comments recorded during aerosolization, guinea pig model; format: in vivo, Dunkin-Hartley guinea pigs; details: one animal per line, listed as SCV
# Protocol: Female Dunkin-Hartley guinea pigs (200-350 g) were purchased from Charles River, Kingston, New York facility, Barrier […]. Animals were shipped to Duluth, Minn., and held in our animal facility for 5-7 days prior to beginning the experiment. Experimental treatment groups are outlined in Table 7. Animals were sensitized on day 0 ip with 50 mg/kg OVA. On Days 17, 18, 19, and 20, animals received an ip injection between 8 and 10 am with PBS, SCV-07 at 1 ug/kg, or SCV-07 at 10 ug/kg (Peptide treatment). Between 8 and 10 a.m. on Day 21, animals were administered peptide 2 hours before OVA or saline (NSS) aerosol challenge. 30 min before OVA or NSS aerosol challenge each animal was injected ip with an antihistamine (6.1 mg/kg pyrilamine maleate) to prevent death due to the anaphylactic response that accompanies aerosol OVA challenge. Animals were exposed to aerosol in pairs with either 1% OVA solution or NSS for 5 min in a plexiglass chamber (22×22×29 cm) using a DeVilbiss Model 35B Ultrasonic Nebulizer. Animals were observed during the total 5 min aerosolization and comments recorded. Within 22-24 hours after challenge, animals were euthanized, bled by cardiac puncture, lavaged and lung lobes removed for measurement of cellular infiltration. At the time of OVA or NSS challenge and euthanasia, animal weights ranged from approximately 350-550 g, with the average weight approximately 420 g. This experimental protocol is similar to that used in previously published studies (Regal and Fraser, 1996; Regal et al., 2000). The experimenter was not blinded to the treatment. […] In general, animals sensitized and challenged with OVA and antihistamine pre-treated will not die from the allergen challenge, but will experience labored breathing and oftentimes coughing and gasping. All 7 animals in the PBS OVA treatment group had some visible reaction as expected. The remarkable finding was the number of animals in the SCV 1 OVA and SCV 10 OVA treatment groups that had no apparent reaction to the OVA aerosol. […] The obvious speculation is that SCV-07 attenuates the immediate bronchoconstriction to allergen challenge. Follow-up experiments are definitely indicated by this observation.
# [3] = system: eosinophils and neutrophils in the lung tissue; assay: Lung tissue eosinophil peroxidase (EPO) and myeloperoxidase (MPO), guinea pig model; format: in vivo, Dunkin-Hartley guinea pigs
# Protocol: (§1) Animals were sensitized on day 0 ip with 50 mg/kg OVA. On Days 17, 18, 19, and 20, animals received an ip injection between 8 and 10 am with PBS, SCV-07 at 1 ug/kg, or SCV-07 at 10 ug/kg (Peptide treatment). Between 8 and 10 a.m. on Day 21, animals were administered peptide 2 hours before OVA or saline (NSS) aerosol challenge. 30 min before OVA or NSS aerosol challenge each animal was injected ip with an antihistamine (6.1 mg/kg pyrilamine maleate) to prevent death due to the anaphylactic response that accompanies aerosol OVA challenge. Animals were exposed to aerosol in pairs with either 1% OVA solution or NSS for 5 min in a plexiglass chamber (22×22×29 cm) using a DeVilbiss Model 35B Ultrasonic Nebulizer. Animals were observed during the total 5 min aerosolization and comments recorded. Within 22-24 hours after challenge, animals were euthanized, bled by cardiac puncture, lavaged and lung lobes removed for measurement of cellular infiltration. At the time of OVA or NSS challenge and euthanasia, animal weights ranged from approximately 350-550 g, with the average weight approximately 420 g. This experimental protocol is similar to that used in previously published studies (Regal and Fraser, 1996; Regal et al., 2000). Animals were euthanized with pentobarbital (100-200 mg/kg), bled by cardiac puncture, and lavaged with room temperature PBS. For bronchoalveolar lavage (BAL), the trachea was cannulated and 4 volumes of PBS were introduced into the tracheal cannula and gently withdrawn. Total lavage volume was 60 ml/kg. The BAL was centrifuged to sediment the cells, and the BAL cell pellet re-suspended in 1.0 ml PBS for determination of the total number of white blood cells (WBC) recovered in the BAL of each animal. The BAL supernatant was frozen at −70 C for determination of total protein recovered in the BAL supernatant using the method of Lowry et al. (1951). Total white blood cells in BAL were counted by standard methods in a hemacytometer using Turk's solution. Differential counts were obtained from cytospin preparations of BAL cells (3×10^4 cells) stained with a modified Wrights' stain (Diff Quik, American Scientific Products, McGraw Park, Ill.). Four hundred cells were counted and identified as eosinophils, neutrophils, or mononuclear cells. […] EPO activity from the homogenized lung after lavage was expressed as total OD/min from the left caudal lobe. MPO activity from the homogenized lung after lavage was expressed as total units of enzyme activity from the right caudal lobe. […] OD412 of the BAL supernatant was also determined to estimate the number of RBCS that were lysed during the lavage procedure and prior to re-suspension of the cells for counting. […]
# [4] = system: BAL cells; assay: BAL white blood cells and differentials, guinea pig model; format: in vivo, Dunkin-Hartley guinea pigs
# Protocol: as §1
# [5] = system: bone marrow cells; details: cited from earlier work
smiles,measurement,setting,value
"N[C@H](CCC(=O)N[C@@H](Cc1c[nH]c2ccccc12)C(=O)O)C(=O)O [SCV-07, γ-D-glutamyl-L-tryptophan]",Change in ConA-induced production of IL-4 by the splenocytes,[1],two-fold reduction
same,Comment recorded during aerosolization,"[2]; SCV 1 NSS: SCV-07 1 ug/kg ip, NSS aerosol",huddling in corner; also recorded: no rx
same,Comment recorded during aerosolization,"[2]; SCV 1 OVA: SCV-07 1 ug/kg ip, OVA aerosol",slight cough 1x? and 1 cough?
same,Comment recorded during aerosolization,"[2]; SCV 10 NSS: SCV-07 10 ug/kg ip, NSS aerosol","huddling in corner, no rx"
same,Comment recorded during aerosolization,"[2]; SCV 10 OVA: SCV-07 10 ug/kg ip, OVA aerosol",no rx (3×) and slight cough and 1 cough? and deeper breathing (2×)
same,Lung MPO in animals challenged with NSS aerosol,"[3]; 1 ug/kg, p<0.05 vs PBS NSS control",significantly reduced
same,Change in lung EPO from NSS to OVA vs PBS treatment,"[3]; 10 ug/kg, ANOVA contrast",greater
same,Lung EPO in animals challenged with NSS aerosol,"[3]; 10 ug/kg, p<0.05 vs PBS NSS control",significantly reduced
same,Change in lung MPO from NSS to OVA,[3]; ANOVA contrast vs PBS treatment,did not differ
same,Change in BAL neutrophils from NSS to OVA,"[4]; 1 ug/kg, ANOVA contrast vs PBS treatment",differed
same,Composition of cells in the BAL of control animals challenged with NSS,"[4]; NSS aerosol, 1 or 10 ug/kg",did not significantly affect
same,Total eosinophils in the BAL,[4]; OVA aerosol challenge,did not change
same,% eosinophils in the BAL,"[4]; OVA aerosol challenge, not statistically significant",tended to decrease
same,Expression of Thy-1.2 on bone marrow cells,[5],stimulates expression
